Test results from patent US8933228B2, “Respiratory formulations and compounds for use therein” (Respivert, Ltd., priority 2010, dated 2015).

Legend:
cSrc enzyme = cSrc enzyme (Homo sapiens (Human), UniProt P12931); assay: c-SRC enzyme inhibition assay (FRET, Z'-LYTE); type: biochemical; details: read-out: Enzyme Profile: IC50 Values cSrc
HCK enzyme = HCK enzyme (Homo sapiens (Human), UniProt P08631); assay: HCK enzyme inhibition assay (FRET, Z'-LYTE); type: biochemical; details: read-out: Enzyme Profile: IC50 Values HCK
[1] = tested on: TNFα release in THP-1 cells; assay: LPS-induced TNFα release in THP-1 cells; type: cell-based; details: Homo sapiens; THP-1 cells, LPS 3 μg/mL, 4 hr; read-out: THP1 (LPS) TNFα IC50
Experimental: The inhibition of TNFα production was calculated at each concentration by comparison with vehicle control.

p38 MAPK γ (MAPK12) = p38 MAPK γ (MAPK12) (Homo sapiens (Human), UniProt P53778); assay: Enzyme inhibition assay (FRET, Z-LYTE), p38 MAPK gamma; type: biochemical; details: read-out: Enzyme Profile: IC50 Values p38γ
Experimental: (§1) The enzyme inhibitory activity of test compounds was determined by fluorescence resonance energy transfer (FRET) using synthetic peptides labelled with both donor and acceptor fluorophores (Z-LYTE, Invitrogen). Recombinant, phosphorylated p38 MAPK γ (MAPK12:Millipore) was diluted in HEPES buffer, mixed with compound at the desired final concentrations and incubated for 2 hr at RT. The FRET peptide (2 μM) and ATP (100 μM) were next added to the enzyme/compound mixture and incubated for 1 hr. Development reagent (protease) was added for 1 hr prior to detection in a fluorescence microplate reader. The site-specific protease only cleaves non-phosphorylated peptide and eliminates the FRET signal. Phosphorylation levels of each reaction were calculated using the ratio of coumarin emission (donor) over fluorescein emission (acceptor) with high ratios indicating high phosphorylation levels and low ratios indicating low phosphorylation levels.

[2] = tested on: IL-8 release in d-U937 cells; assay: LPS-induced IL-8 release in d-U937 cells; type: cell-based; details: Homo sapiens, dU937; d-U937 cells, LPS 0.1 μg/mL, 4 hr; read-out: d-U937 (LPS) IL-8 IC50
Experimental: (§2) U937 cells, a human monocytic cell line, were differentiated to macrophage-type cells by incubation with phorbol myristate acetate (PMA; 100 ng/mL) for 48 to 72 hr, whereupon the cells become adherent. […] Coli: O111:B4, Sigma) for 4 hr. The supernatant was collected for determination of TNFα and IL-8 concentrations by sandwich ELISA (Duo-set, R&D systems). […] The relative 50% effective concentration (REC50) was determined from the resultant concentration-response curve. The inhibition of IL-8 production was calculated at each concentration of test compound by comparison with vehicle control.

[3] = tested on: Differentiated U937 cells; assay: MTT assay: cell viability; type: cell-based, human; details: 1 μg/ml; for d-U937 MTT Assay 4 h: 5% FCS; for d-U937 MTT Assay 24 h: 10% FCS
Experimental: Differentiated U937 cells were pre-incubated with each test compound under two protocols: the first for 4 hr in 5% FCS and the second in 10% FCS for 24 h. The supernatant was replaced with 200 μL of new media and 10 μL of MTT stock solution (5 mg/mL) was added to each well. After incubation for 1 hr the media were removed, 200 μL of DMSO was added to each well and the plates were shaken lightly for 1 hr prior to reading the absorbance at 550 nm. The percentage loss of cell viability was calculated for each well relative to vehicle (0.5% DMSO) treatment. Consequently an apparent increase in cell viability for drug treatment relative to vehicle is tabulated as a negative percentage.

[4] = tested on: ICAM-1 expression in BEAS2B cells; assay: Poly I:C-induced ICAM-1 induction in BEAS2B cells; type: cell-based; details: Homo sapiens, BEAS-2B; BEAS2B cells, poly I:C 1 μg/mL, 18 hr; read-out: BEAS2B (polyIC) ICAM1 IC50
Experimental: Poly I:C (1 μg/mL) (Invivogene Ltd., San Diego, Calif.) was transfected into BEAS2B cells (human bronchial epithelial cells, ATCC) with Oligofectamine (Invitrogen, Carlsbad, Calif.). Cells were pre-incubated with final concentrations of test compounds for 2 hr and the level of ICAM1 expression on the cell surface was determined by cell-based ELISA. […] The cells were washed with PBS-Tween and incubated with the secondary antibody (HRP-conjugated anti-rabbit IgG, Dako Ltd., Glostrup, Denmark).

HRV16 = assay: Rhinovirus-titre assay; type: cell-based, human rhinovirus; details: HRV16; for inhibition at 0.04 µg/mL: Human rhinovirus sp., cell not marked b, test compounds 0.04 μg/mL per method (footnote b, 0.2 μg/mL), read-out: HRV titre (inhibitory %): % inhibition observed vs. HRV16 infection control
Experimental: MRC5 cells (human lung fibroblast, ATCC) were infected with 1 MOI (multiplicity of infection of 1.0) of HRV16 and incubated for 1 hr at 33° C. with gentle shaking to stimulate adsorption. The cells were then washed with PBS, fresh media was added and the cells were incubated for a further 96 hr. The supernatant was collected and 10-fold serial dilutions of virus containing supernatant were prepared. All titrations were performed by infecting confluent Hela cell monolayers with serially diluted supernatant (10^−1-10^−5) and assessing the cytopathic effect by visual inspection 4 days after infection. The amount of virus required to infect 50% of Hela cells was calculated in each treatment as TCID50. Test compounds (0.04 μg/mL) were added 2 hr before HRV infection and 1 hr after infection when non-infected HRV was washed out. The anti-HRV activity of each test compound was determined as the difference of the log TCID50 of HRV16 in the presence of the compound with the log TCID50 of HRV16 in the absence of compound. […]

[5] = tested on: TNFα release in d-U937 cells; assay: LPS-induced TNFα release in d-U937 cells; type: cell-based; details: Homo sapiens, dU937, LPS 0.1 μg/mL, 4 hr, relative to 10 μg/mL BIRB796, read-out: d-U937 (LPS) TNFα REC50
Experimental: as §2

p38 MAPK alpha (MAPK14) = p38 MAPK alpha (MAPK14) (Homo sapiens (Human), UniProt Q16539); assay: Enzyme inhibition assay (FRET, Z-LYTE), p38 MAPK alpha via MAPKAP-K2 activation; type: biochemical; details: read-out: Enzyme Profile: IC50 Values p38α
Experimental: as §1
For p38 MAPK alpha (MAPK14: Invitrogen), enzyme activity was evaluated indirectly by determining activation/phosphorylation of the down-stream molecule, MAPKAP-K2. The p38 MAPK a protein was mixed with compound for 2 hr at RT. […] Development reagent was then added and the mixture incubated for 1 hr before detection by fluorescence completed the assay protocol.
The enzyme inhibitory activity of compound was determined by fluorescence resonance energy transfer (FRET) using synthetic peptides labelled with both donor and acceptor fluorophores (Z′-LYTE, Invitrogen).

Compound | IC50 (cSrc enzyme) [nM] | IC50 (HCK enzyme) [nM] | IC50 [1] [nM] | IC50 (p38 MAPK γ (MAPK12)) [nM] | IC50 [2] [nM] | EC50 [5] [nM] | IC50 (p38 MAPK alpha (MAPK14)) [nM] | d-U937 MTT Assay 4 h [3] | d-U937 MTT Assay 24 h [3] | IC50 [4] [nM] | inhibition at 0.04 µg/mL (HRV16) [%] | NBEC (HRV) HRV titre Relative anti-viral activity (HRV16; at 0.04 μg/mL vs. pleconaril at 0.1 μg/mL)
CC(C)(C)c1cc(NC(=O)Nc2ccc(Oc3ccnc4[nH]c(=O)cnc34)c3ccccc23)n(-c2ccc(CO)cc2)n1 [Example 17, 1-(3-(tert-Butyl)-1-(4-(hydroxymethyl)phenyl)-1H-pyrazol-5-yl)-3-(4-((3-oxo-3,4-dihydropyrido[2,3-b]pyrazin-8-yl)oxy)naphthalen-1-yl)urea] | 11 | 24 | 14 | 318 | 24 | 12 | 7 | − (− and + indicate the result is below and above the no significant effect threshold, respectively (<30% inhibition at a concentration of 1 μg/ml)) | − (− and + indicate the result is below and above the no significant effect threshold, respectively (<30% inhibition at a concentration of 1 μg/ml)) | 14 | 36 | 
COc1ccc(-n2nc(C(C)(C)C)cc2NC(=O)Nc2ccc(Oc3ccnc4[nH]c(=O)n(C)c34)c(Cl)c2Cl)cc1 [Example 13, 1-(3-(tert-Butyl)-1-(4-methoxyphenyl)-1H-pyrazol-5-yl)-3-(2,3-dichloro-4-((1-methyl-2-oxo-2,3-dihydro-1H-imidazo[4,5-b]pyridin-7-yl)oxy)phenyl)urea] | 5 | 4 | 0.6 | 23 | 4.6 | 0.6 | 7 | − (− and + indicate the result is below and above the no significant effect threshold, respectively (<30% inhibition at a concentration of 1 μg/ml)) | + (− and + indicate the result is below and above the no significant effect threshold, respectively (<30% inhibition at a concentration of 1 μg/ml)) | 6.2 |  | 
CNS(=O)(=O)Cc1ccc(-n2nc(C(C)(C)C)cc2NC(=O)Nc2ccc(Oc3ccnc4[nH]c(=O)cnc34)c3ccccc23)cc1 [Example 26, 1-(4-(3-(tert-butyl)-5-(3-(4-((3-oxo-3,4-dihydropyrido[2,3-b]pyrazin-8-yl)oxy)naphthalen-1-yl)ureido)-1H-pyrazol-1-yl)phenyl)-N-methylmethanesulfonamide] | 13 | 3 | 75 | 29 | 1.6 | 1.9 | 7 | − (− and + indicate the result is below and above the no significant effect threshold, respectively (<30% inhibition at a concentration of 1 μg/ml)) | − (− and + indicate the result is below and above the no significant effect threshold, respectively (<30% inhibition at a concentration of 1 μg/ml)) | 207 |  | 
COc1ccc(-n2nc(C(C)(C)C)cc2NC(=O)Nc2ccc(OCc3ccnc4[nH]c(=O)cnc34)c3ccccc23)cc1 [Example 23] | 35 | 22 |  | 193 | 90 | 30 | 12 | − (− and + indicate the result is below and above the no significant effect threshold, respectively (<30% inhibition at a concentration of 1 μg/ml)) | − (− and + indicate the result is below and above the no significant effect threshold, respectively (<30% inhibition at a concentration of 1 μg/ml)) | 23 |  | 

More lines, in order of falling IC50 [2], values ahead:

IC50 (cSrc enzyme) [nM] | IC50 (HCK enzyme) [nM] | IC50 [1] [nM] | IC50 (p38 MAPK γ (MAPK12)) [nM] | IC50 [2] [nM] | EC50 [5] [nM] | IC50 (p38 MAPK alpha (MAPK14)) [nM] | Compound | d-U937 MTT Assay 4 h [3] | d-U937 MTT Assay 24 h [3] | IC50 [4] [nM] | inhibition at 0.04 µg/mL (HRV16) [%] | NBEC (HRV) HRV titre Relative anti-viral activity (HRV16; at 0.04 μg/mL vs. pleconaril at 0.1 μg/mL)
4 | 2 | 0.7 | 24 | 17 | 1.1 | 1 | Cc1ccc(-n2nc(C(C)(C)C)cc2NC(=O)Nc2ccc(Oc3ccnc4[nH]c(=O)n(C)c34)c3ccccc23)cc1 [Example 3, 1-(3-tert-butyl-1-p-tolyl-1H-pyrazol-5-yl)-3-(4-(1-methyl-2-oxo-2,3-dihydro-1H-imidazo[4,5-b]pyridin-7-yloxy)naphthalen-1-yl)urea] | − (− and + indicate the result is below and above the no significant effect threshold, respectively (<30% inhibition at a concentration of 1 μg/ml)) | − (− and + indicate the result is below and above the no significant effect threshold, respectively (<30% inhibition at a concentration of 1 μg/ml)) | 4.1 | 36 | 0.2
 |  | 8.8 |  | 7 | 5.5 |  | CC(C)(C)c1cc(NC(=O)Nc2ccc(Oc3ccnc4[nH]c(=O)cnc34)c3ccccc23)n(-c2ccc(Cl)c(Cl)c2)n1 [Example 32, 1-(3-(tert-butyl)-1-(3,4-dichlorophenyl)-1H-pyrazol-5-yl)-3-(4-((3-oxo-3,4-dihydropyrido[2,3-b]pyrazin-8-yl)oxy)naphthalen-1-yl)urea] | − (− and + indicate the result is below and above the no significant effect threshold, respectively (<30% inhibition at a concentration of 1 μg/ml)) | − (− and + indicate the result is below and above the no significant effect threshold, respectively (<30% inhibition at a concentration of 1 μg/ml)) | 10 | 80 | 
9 |  | 0.7 | 72 | 5.2 | 1.1 |  | Cc1ccc(-n2nc(C(C)(C)C)cc2NC(=O)Nc2ccc(Oc3ccnc4[nH]c(=O)cnc34)c3ccccc23)cc1 [Example 6] | − (− and + indicate the result is below and above the no significant effect threshold, respectively (<30% inhibition at a concentration of 1 μg/ml)) | − (− and + indicate the result is below and above the no significant effect threshold, respectively (<30% inhibition at a concentration of 1 μg/ml)) | 11 | 80 | 
